Assay results as given in article PMC7587356, “High-Throughput Screening for Inhibitors of the SARS-CoV-2 Protease Using a FRET-Biosensor” (Molecules, 2020).
Where a name gives a salt, the structure may show the parent alone. Read-outs that look alike come from different tables or passages of the source.

Target: SARS-CoV-2 3CLpro (Severe acute respiratory syndrome coronavirus 2, UniProt P0DTD1)
Assay: biochemical
Type: biochemical
Set-up: Replicate_1 / Replicate_2 / mean / mean (LOPAC_screen_w_protease): unit not given here
Conditions: for inhibition at 5 µM: 4 h
[1] = sheet LOPAC_screen_w_protease, primary screen of LOPAC1280 at 5 µM with protease, mean of the two replicates
[2] = sheet LOPAC_screen_w_protease, primary screen of LOPAC1280 at 5 µM with protease, replicate 1
[3] = sheet LOPAC_screen_w_protease, primary screen of LOPAC1280 at 5 µM with protease, replicate 2
[4] = sheet LOPAC_screen_w_protease, primary screen with protease, 5 µM, mean of two replicates
[5] = sheet LOPAC_screen_w_protease, primary screen with protease, 5 µM, replicate 1
[6] = sheet LOPAC_screen_w_protease, primary screen with protease, 5 µM, replicate 2
[7] = LOPAC1280 primary screen with protease, 5 µM compound, mean of two replicates
[8] = LOPAC1280 primary screen with protease, 5 µM compound, replicate 1
[9] = LOPAC1280 primary screen with protease, 5 µM compound, replicate 2
[10] = LOPAC1280 primary screen with protease, 5 µM compound, replicate 1, read-out: Replicate_1 (LOPAC_screen_w_protease)
[11] = LOPAC1280 primary screen with protease, 5 µM compound, replicate 2, read-out: Replicate_2 (LOPAC_screen_w_protease)
[12] = LOPAC1280 primary screen with protease, 5 µM compound, mean of the two replicates

Br.CCSC(=N)N [S-Ethylisothiourea hydrobromide] gave a mean (sheet LOPAC_screen_w_protease, LOPAC1280 at 5 µM, mean of two replicates) of 1.099, a Replicate_1 (sheet LOPAC_screen_w_protease, LOPAC1280 at 5 µM, replicate 1) of 2.674 and a Replicate_2 (sheet LOPAC_screen_w_protease, LOPAC1280 at 5 µM, replicate 2) of -0.4768.
For O=c1nc2[nH]c3ccccc3nc-2c(=O)[nH]1 [Alloxazine], the inhibition at 5 µM (sheet LOPAC_screen_w_protease, LOPAC1280 primary screen with protease, 5 µM compound, mean of the two replicates, read-out: mean) was 4.73%, the inhibition at 5 µM (sheet LOPAC_screen_w_protease, LOPAC1280 primary screen with protease, 5 µM compound, replicate 1, read-out: Replicate_1) was 4.91% and the inhibition at 5 µM (sheet LOPAC_screen_w_protease, LOPAC1280 primary screen with protease, 5 µM compound, replicate 2, read-out: Replicate_2) was 4.55%.
In the case of COc1nc(C)nc(Cl)c1NC1=NCCN1.Cl [Moxonidine hydrochloride], the mean [1] is reported as 3.905, the Replicate_1 [2] is reported as 2.314 and the Replicate_2 [3] is reported as 5.497.
For CC(=O)OCC1=C(C(=O)[O-])N2C(=O)[C@@H](NC(=O)CCC[C@@H](N)C(=O)[O-])[C@H]2SC1.[Zn+2] [Cephalosporin C zinc salt], the mean [4] was 0.2554, the Replicate_1 [5] was 0.7755 and the Replicate_2 [6] was -0.2647.
With N#C/C(=C\c1ccc(O)c(O)c1)C(=O)c1ccc(O)c(O)c1 [Tyrphostin AG 538] the “mean (LOPAC_screen_w_protease)” value [7] was 1.741, the “Replicate_1 (LOPAC_screen_w_protease)” value [8] was 1.926 and the “Replicate_2 (LOPAC_screen_w_protease)” value [9] was 1.555.
For C=CCN1CC[C@]23c4c5ccc(O)c4O[C@@H]2/C(=N/N=C2\CC[C@@]4(O)C6Cc7ccc(O)c8c7[C@@]4(CCN6CC=C)[C@@H]2O8)CC[C@@]3(O)C1C5.Cl.Cl [Naloxonazine dihydrochloride], the “mean (LOPAC screen with protease)” value (sheet LOPAC_screen_w_protease, primary screen at 5 µM, mean of two replicates) was 7.252, the “Replicate_1 (LOPAC screen with protease)” value (sheet LOPAC_screen_w_protease, primary screen at 5 µM, replicate 1) was 6.395 and the “Replicate_2 (LOPAC screen with protease)” value (sheet LOPAC_screen_w_protease, primary screen at 5 µM, replicate 2) was 8.109.
With C=CC(N)CCC(=O)O (racemic) [(±)-gamma-Vinyl GABA] the mean [4] was -0.2228, the Replicate_1 [5] was -0.2758 and the Replicate_2 [6] was -0.1698.
With Cc1cccc(C)c1N=C1NCCCS1 [Xylazine hydrochloride] the inhibition at 5 µM (read-out: Replicate_1) was 0.366%, the inhibition at 5 µM (read-out: Replicate_2) was 2.25% and the inhibition at 5 µM (read-out: mean) was 1.31%.
Nc1cc(=O)[nH]c(N)n1 [2,6-Diamino-4-pyrimidinone] showed a mean [1] of 3.421, a Replicate_1 [2] of 3.441 and a Replicate_2 [3] of 3.4.
N#CC(C#N)=Cc1cc(O)c(O)c(O)c1 [Tyrphostin 25] showed an inhibition at 5 µM (sheet LOPAC_screen_w_protease, primary screen at 5 µM, mean of two replicates, read-out: mean (LOPAC screen with protease)) of 8.52%, an inhibition at 5 µM (sheet LOPAC_screen_w_protease, primary screen at 5 µM, replicate 1, read-out: Replicate_1 (LOPAC screen with protease)) of 10.5% and an inhibition at 5 µM (sheet LOPAC_screen_w_protease, primary screen at 5 µM, replicate 2, read-out: Replicate_2 (LOPAC screen with protease)) of 6.57%.
In the case of NCCCCCC(=O)O [6-Aminohexanoic acid], the inhibition at 5 µM [10] is reported as 2.45%, the inhibition at 5 µM [11] is reported as 1.78% and the “mean (LOPAC_screen_w_protease)” value [12] is reported as 2.116.
Work on CC1=NS(=O)(=O)c2cc(Cl)ccc2N1 [Diazoxide] yielded an inhibition at 5 µM (sheet LOPAC_screen_w_protease, primary screen of LOPAC1280 at 5 µM with protease, mean of the two replicates, read-out: mean) of 3.37%, an inhibition at 5 µM (sheet LOPAC_screen_w_protease, primary screen of LOPAC1280 at 5 µM with protease, replicate 1, read-out: Replicate_1) of 4.67% and an inhibition at 5 µM (sheet LOPAC_screen_w_protease, primary screen of LOPAC1280 at 5 µM with protease, replicate 2, read-out: Replicate_2) of 2.07%.
With O=C(CCCN1CCC2(CC1)C(=O)NCN2c1ccccc1)c1ccc(F)cc1 [Spiperone hydrochloride] the inhibition at 5 µM [10] was 2.31%, the inhibition at 5 µM [11] was 1.15% and the “mean (LOPAC_screen_w_protease)” value [7] was 1.727.
In the case of O=c1c(O)c(-c2ccc(O)c(O)c2)oc2cc(O)cc(O)c12 [Quercetin dihydrate], the inhibition at 5 µM (read-out: Replicate_1 (LOPAC_screen_w_protease)) is reported as 2.76% and the inhibition at 5 µM (read-out: Replicate_2 (LOPAC_screen_w_protease)) is reported as 1.18%.
Cl.O=C(O)Cc1c[nH]cn1 [Imidazole-4-acetic acid hydrochloride] showed a mean (sheet LOPAC_screen_w_protease, LOPAC1280 primary screen at 5 µM, with protease, mean of the two replicates) of 0.8241, a Replicate_1 (sheet LOPAC_screen_w_protease, LOPAC1280 primary screen at 5 µM, with protease, replicate 1) of 2.255 and a Replicate_2 (sheet LOPAC_screen_w_protease, LOPAC1280 primary screen at 5 µM, with protease, replicate 2) of -0.6064.
CC1(C(=O)O)C2CCC(O2)C1(C)C(=O)O (centres unmarked) [Cantharidic Acid] was tested, and the inhibition at 5 µM [10] was 2.04%, the inhibition at 5 µM [11] was 1.78% and the “mean (LOPAC_screen_w_protease)” value [12] was 1.914.
Cl.O=C(Cc1ccc(Cl)c(Cl)c1)N1CCCCC1CN1CCCC1 (centres unmarked) [BRL 52537 hydrochloride] was tested, and the “mean (LOPAC_screen_w_protease)” value [7] was 1.672, the “Replicate_1 (LOPAC_screen_w_protease)” value [8] was 2.192 and the “Replicate_2 (LOPAC_screen_w_protease)” value [9] was 1.152.
